Results on 20 compounds are retold here after patent publication US8357707B2, “2-carboxamide cycloamino ureas” (Novartis AG, priority 2009, dated 2013).

Holding throughout (assay type): biochemical
The target in one test is T1, PI3Kβ (Homo sapiens, UniProt P42338).
T1 construct: His tag (C); made in house; host or cells: Tn5 insect cells, baculovirus BV949 (vector LR280)
The experiment in a line: PI3K KinaseGlo assay, PI3Kbeta. To be noted: 25 nM enzyme, 1 μM ATP, 30 mins.

A further test has as its target T2, PI3Kδ (Homo sapiens, UniProt O00329).
T2 construct: His tag (C); made in house; host or cells: Tn5 insect cells, baculovirus BV1060 (vector LR415)
The experiment in a line: PI3K KinaseGlo assay, PI3Kdelta. To be noted: 10 nM enzyme, 1 μM ATP, 30 mins.

Another test addresses T3, PI3Kγ (Homo sapiens, UniProt P48736, Q459R).
T3 construct: Constructs lacking the N-terminal 144 aa; His tag (C); made in house; host or cells: Tn5 insect cells, baculovirus BV950; construct from the Roger Williams lab (MRC LMB)
The experiment in a line: PI3K KinaseGlo assay, PI3Kgamma. The settings on record: 150 nM enzyme, 1 μM ATP, 90 mins.

A further test has as its target T4, PI3Kα (Homo sapiens, UniProt P42336).
T4 construct: His tag (C); made in house; host or cells: Tn5 insect cells, baculovirus BV-1075
The experiment in a line: PI3K KinaseGlo assay, PI3Kalpha. The settings on record: 10 nM enzyme, 1 μM ATP, 30 mins.

T3 sequence (P48736 with tags, fused parts or gaps Q459R): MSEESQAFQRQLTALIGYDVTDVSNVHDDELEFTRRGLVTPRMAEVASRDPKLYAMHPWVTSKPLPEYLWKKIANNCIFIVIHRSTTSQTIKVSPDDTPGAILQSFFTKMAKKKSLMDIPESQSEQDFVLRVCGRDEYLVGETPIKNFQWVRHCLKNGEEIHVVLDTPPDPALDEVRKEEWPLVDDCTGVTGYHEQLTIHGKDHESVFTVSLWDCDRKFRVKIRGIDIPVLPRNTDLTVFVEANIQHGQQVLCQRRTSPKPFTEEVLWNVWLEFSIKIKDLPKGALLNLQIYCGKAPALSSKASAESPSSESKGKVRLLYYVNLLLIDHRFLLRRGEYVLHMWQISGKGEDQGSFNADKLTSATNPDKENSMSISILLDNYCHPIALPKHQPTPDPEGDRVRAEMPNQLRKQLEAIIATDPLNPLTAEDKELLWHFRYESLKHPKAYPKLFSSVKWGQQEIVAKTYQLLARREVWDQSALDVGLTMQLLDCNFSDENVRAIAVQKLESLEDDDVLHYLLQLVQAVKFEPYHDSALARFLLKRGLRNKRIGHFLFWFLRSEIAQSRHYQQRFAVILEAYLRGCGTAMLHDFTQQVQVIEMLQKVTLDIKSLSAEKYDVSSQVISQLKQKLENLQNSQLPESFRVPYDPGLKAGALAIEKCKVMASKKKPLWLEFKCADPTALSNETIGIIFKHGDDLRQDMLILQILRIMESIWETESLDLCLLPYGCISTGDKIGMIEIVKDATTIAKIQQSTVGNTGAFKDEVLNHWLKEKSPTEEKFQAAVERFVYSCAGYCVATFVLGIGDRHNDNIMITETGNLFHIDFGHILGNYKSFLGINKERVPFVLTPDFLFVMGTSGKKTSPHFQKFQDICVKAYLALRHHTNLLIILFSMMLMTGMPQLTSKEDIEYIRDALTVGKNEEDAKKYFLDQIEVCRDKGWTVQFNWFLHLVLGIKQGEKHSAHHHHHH
T4 sequence (P42336 with tags, fused parts or gaps): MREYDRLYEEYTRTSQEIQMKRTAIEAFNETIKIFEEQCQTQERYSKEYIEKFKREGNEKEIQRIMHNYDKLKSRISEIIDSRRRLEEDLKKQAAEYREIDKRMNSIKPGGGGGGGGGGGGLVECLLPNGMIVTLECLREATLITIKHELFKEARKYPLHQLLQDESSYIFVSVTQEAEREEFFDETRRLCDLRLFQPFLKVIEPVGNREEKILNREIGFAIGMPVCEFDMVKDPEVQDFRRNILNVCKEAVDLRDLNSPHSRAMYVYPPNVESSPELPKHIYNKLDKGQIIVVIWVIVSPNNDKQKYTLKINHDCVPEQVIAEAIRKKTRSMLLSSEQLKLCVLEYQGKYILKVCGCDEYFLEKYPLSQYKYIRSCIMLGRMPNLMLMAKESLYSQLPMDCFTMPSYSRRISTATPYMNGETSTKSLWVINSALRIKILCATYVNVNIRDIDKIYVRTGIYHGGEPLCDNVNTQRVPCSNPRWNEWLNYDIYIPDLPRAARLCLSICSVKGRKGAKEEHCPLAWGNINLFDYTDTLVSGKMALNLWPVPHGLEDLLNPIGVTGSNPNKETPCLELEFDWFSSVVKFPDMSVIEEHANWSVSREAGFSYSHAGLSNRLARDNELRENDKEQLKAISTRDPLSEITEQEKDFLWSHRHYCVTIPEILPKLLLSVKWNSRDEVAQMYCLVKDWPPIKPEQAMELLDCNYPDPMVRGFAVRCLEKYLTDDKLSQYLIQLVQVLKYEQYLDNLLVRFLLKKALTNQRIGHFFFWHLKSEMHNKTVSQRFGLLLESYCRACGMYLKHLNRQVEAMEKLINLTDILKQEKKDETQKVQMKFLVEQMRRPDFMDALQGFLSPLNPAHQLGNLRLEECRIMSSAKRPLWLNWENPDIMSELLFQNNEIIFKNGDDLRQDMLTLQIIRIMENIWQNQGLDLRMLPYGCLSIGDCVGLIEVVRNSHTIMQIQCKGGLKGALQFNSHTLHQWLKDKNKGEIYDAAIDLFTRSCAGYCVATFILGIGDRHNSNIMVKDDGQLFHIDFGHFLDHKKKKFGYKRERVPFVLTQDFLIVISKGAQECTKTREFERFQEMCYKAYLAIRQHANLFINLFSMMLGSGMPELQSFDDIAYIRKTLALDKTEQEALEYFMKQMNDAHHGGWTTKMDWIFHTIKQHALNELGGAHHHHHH
T1 sequence (P42338 with tags, fused parts or gaps): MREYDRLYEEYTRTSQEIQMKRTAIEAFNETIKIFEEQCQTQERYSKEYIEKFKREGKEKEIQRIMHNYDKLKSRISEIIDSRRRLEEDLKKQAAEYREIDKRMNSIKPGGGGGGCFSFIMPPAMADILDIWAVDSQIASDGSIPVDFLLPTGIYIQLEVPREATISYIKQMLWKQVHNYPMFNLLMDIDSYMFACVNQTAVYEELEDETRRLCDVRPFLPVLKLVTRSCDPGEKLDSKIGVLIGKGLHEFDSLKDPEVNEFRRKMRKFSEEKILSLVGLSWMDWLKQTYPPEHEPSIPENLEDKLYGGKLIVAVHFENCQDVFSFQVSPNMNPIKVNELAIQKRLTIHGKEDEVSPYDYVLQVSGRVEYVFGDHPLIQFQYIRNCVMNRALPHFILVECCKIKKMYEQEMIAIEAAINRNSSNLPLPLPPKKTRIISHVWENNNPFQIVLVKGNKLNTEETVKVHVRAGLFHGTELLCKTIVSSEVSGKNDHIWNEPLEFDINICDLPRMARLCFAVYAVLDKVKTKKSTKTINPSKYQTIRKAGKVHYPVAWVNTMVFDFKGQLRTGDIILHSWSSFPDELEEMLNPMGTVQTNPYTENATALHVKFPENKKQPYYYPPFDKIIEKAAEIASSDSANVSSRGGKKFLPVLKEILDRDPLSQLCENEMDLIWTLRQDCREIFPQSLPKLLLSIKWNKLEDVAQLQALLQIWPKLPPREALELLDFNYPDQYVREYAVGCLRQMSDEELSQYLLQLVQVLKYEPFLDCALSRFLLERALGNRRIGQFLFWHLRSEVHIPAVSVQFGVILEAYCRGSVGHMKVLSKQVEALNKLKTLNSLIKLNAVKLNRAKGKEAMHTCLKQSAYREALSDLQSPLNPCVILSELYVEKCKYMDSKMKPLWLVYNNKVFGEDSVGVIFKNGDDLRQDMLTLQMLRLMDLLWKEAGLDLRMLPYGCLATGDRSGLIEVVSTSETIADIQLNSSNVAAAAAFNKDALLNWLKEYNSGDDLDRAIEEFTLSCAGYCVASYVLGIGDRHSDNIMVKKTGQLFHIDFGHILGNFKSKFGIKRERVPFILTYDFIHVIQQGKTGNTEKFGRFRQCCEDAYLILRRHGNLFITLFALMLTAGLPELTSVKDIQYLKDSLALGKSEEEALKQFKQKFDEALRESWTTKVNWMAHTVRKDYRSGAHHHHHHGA
T2 sequence (O00329 with tags, fused parts or gaps): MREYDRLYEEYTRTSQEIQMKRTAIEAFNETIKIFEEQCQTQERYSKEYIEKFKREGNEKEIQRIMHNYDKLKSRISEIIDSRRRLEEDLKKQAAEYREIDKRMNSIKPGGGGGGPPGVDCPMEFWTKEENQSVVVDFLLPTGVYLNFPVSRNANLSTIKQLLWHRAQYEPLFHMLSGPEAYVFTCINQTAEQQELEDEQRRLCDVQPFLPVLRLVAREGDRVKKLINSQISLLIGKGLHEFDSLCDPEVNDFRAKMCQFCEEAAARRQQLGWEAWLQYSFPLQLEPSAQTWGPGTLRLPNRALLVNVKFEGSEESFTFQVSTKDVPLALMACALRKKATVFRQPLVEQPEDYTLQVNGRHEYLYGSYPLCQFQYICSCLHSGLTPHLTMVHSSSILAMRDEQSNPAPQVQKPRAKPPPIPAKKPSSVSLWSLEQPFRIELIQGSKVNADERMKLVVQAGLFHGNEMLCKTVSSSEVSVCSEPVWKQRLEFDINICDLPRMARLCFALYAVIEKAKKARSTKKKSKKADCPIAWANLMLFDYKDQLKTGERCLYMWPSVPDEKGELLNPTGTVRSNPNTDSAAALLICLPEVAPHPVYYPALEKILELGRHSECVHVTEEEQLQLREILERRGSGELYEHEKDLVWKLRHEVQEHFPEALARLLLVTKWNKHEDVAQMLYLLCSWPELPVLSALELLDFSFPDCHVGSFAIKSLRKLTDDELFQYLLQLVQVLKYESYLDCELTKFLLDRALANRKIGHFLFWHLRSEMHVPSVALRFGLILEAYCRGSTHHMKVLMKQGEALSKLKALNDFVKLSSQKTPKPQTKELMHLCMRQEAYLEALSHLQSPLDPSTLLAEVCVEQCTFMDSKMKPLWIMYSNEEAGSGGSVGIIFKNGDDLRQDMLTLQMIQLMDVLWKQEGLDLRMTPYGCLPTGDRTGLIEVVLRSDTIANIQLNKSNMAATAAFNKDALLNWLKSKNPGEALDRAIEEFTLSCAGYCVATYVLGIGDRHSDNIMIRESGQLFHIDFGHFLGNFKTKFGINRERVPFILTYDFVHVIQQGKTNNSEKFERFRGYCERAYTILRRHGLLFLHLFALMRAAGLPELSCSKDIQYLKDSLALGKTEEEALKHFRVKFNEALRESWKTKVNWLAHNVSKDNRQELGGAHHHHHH

`CCN(CC)c1ncc2c(n1)-c1sc(NC(=O)N3CC[C@H](C)[C@H]3C(N)=O)nc1CC2` [Example 2, (2S,3S)-3-Methyl-pyrrolidine-1,2-dicarboxylic acid 2-amide 1-[(8-diethylamino-4,5-dihydro-thiazolo[4,5-h]quinazolin-2-yl)-amide]]: the IC50 at PI3Kβ was determined as 332 nM; against PI3Kδ, 30 nM; on PI3Kγ, 90 nM; at PI3Kα, 5.5 nM.

Regarding `CCN(CC)c1ncc2c(n1)-c1sc(NC(=O)N3CCC[C@@]3(C)C(N)=O)nc1CC2` [Example 4, (S)-2-Methyl-pyrrolidine-1,2-dicarboxylic acid 2-amide 1-[(8-diethylamino-4,5-dihydro-thiazolo[4,5-h]quinazolin-2-yl)-amide]], the half-maximal inhibitory concentration (IC50) is 143 nM against PI3Kβ, 220 nM at PI3Kδ, 176 nM against PI3Kγ and 6.5 nM at PI3Kα.

As for `CCN(CC)c1ncc2c(n1)-c1sc(NC(=O)N3CCC[C@@]3(COC)C(N)=O)nc1CC2` [Example 5, (R)-2-Methoxymethyl-pyrrolidine-1,2-dicarboxylic acid 2-amide 1-[(8-diethylamino-4,5-dihydro-thiazolo[4,5-h]quinazolin-2-yl)-amide]], the IC50 turned out to be 47 nM on PI3Kβ, 46 nM at PI3Kδ, 153 nM against PI3Kγ and 5.5 nM against PI3Kα.

Regarding `CCN(CC)c1ncc2c(n1)-c1sc(NC(=O)N3CCC[C@@]3(CO)C(N)=O)nc1CC2` [Example 8, (R)-2-Hydroxymethyl-pyrrolidine-1,2-dicarboxylic acid 2-amide 1-[(8-diethylamino-4,5-dihydro-thiazolo[4,5-h]quinazolin-2-yl)-amide]], the IC50 at PI3Kβ was 276 nM; at PI3Kδ it was 198 nM; against PI3Kγ, 180 nM; at PI3Kα, 9.5 nM.

Take `CC(C)(C)c1ncc2c(n1)-c1sc(NC(=O)N3CCC[C@@]3(CO)C(N)=O)nc1CC2` [Example 9, (R)-2-Hydroxymethyl-pyrrolidine-1,2-dicarboxylic acid 2-amide 1-[(8-tert-butyl-4,5-dihydro-thiazolo[4,5-h]quinazolin-2-yl)-amide]]: the IC50 stood at 87 nM at PI3Kβ, 72 nM at PI3Kδ, 141 nM against PI3Kγ and 8.5 nM against PI3Kα.

As for `CN(Cc1cccc(F)c1)C[C@@]1(C(N)=O)CCCN1C(=O)Nc1nc2c(s1)-c1nc(C(C)(C)C)ncc1CC2` [Example 10, (R)-2-{[(3-Fluoro-benzyl)-methyl-amino]-methyl}-pyrrolidine-1,2-dicarboxylic acid 2-amide 1-[(8-tert-butyl-4,5-dihydro-thiazolo[4,5-h]quinazolin-2-yl)-amide]], the IC50 against PI3Kβ was found to be 449 nM; at PI3Kδ, 54 nM; at PI3Kγ, 282 nM; at PI3Kα it was 18 nM.

Take `CCN(CC)c1ncc2c(n1)-c1sc(NC(=O)N3CCC[C@H]3C(N)=O)nc1CC2` [Example 12, (S)-Pyrrolidine-1,2-dicarboxylic acid 2-amide 1-[(8-diethylamino-4,5-dihydro-thiazolo[4,5-h]quinazolin-2-yl)-amide]]: the IC50 came to 516 nM on PI3Kβ, 53 nM at PI3Kδ, 230 nM against PI3Kγ and 6 nM at PI3Kα.

As to `CCN(CC)c1ncc2c(n1)-c1sc(NC(=O)N3CC[C@H]3C(N)=O)nc1CC2` [Example 13, (S)-Azetidine-1,2-dicarboxylic acid 2-amide 1-[(8-diethylamino-4,5-dihydro-thiazolo[4,5-h]quinazolin-2-yl)-amide]], the IC50 at PI3Kβ was determined as 277 nM; against PI3Kδ it was 118 nM; against PI3Kγ, 104 nM; against PI3Kα, 9 nM.

With `CCN(CC)c1ncc2c(n1)-c1sc(NC(=O)N3C[C@H](F)C[C@H]3C(N)=O)nc1CC2` [Example 16, (2S,4R)-4-Fluoro-pyrrolidine-1,2-dicarboxylic acid 2-amide 1-[(8-diethylamino-4,5-dihydro-thiazolo[4,5-h]quinazolin-2-yl)-amide]], the IC50 turned out to be 297 nM against PI3Kβ, 60 nM against PI3Kδ, 74 nM against PI3Kγ and 5.5 nM at PI3Kα.

In the case of `CCN(CC)c1ncc2c(n1)-c1sc(NC(=O)N3C[C@@H](F)C[C@H]3C(N)=O)nc1CC2` [Example 17, (2S,4S)-4-Fluoro-pyrrolidine-1,2-dicarboxylic acid 2-amide 1-[(8-diethylamino-4,5-dihydro-thiazolo[4,5-h]quinazolin-2-yl)-amide]], the IC50 came out at 389 nM against PI3Kβ, 236 nM against PI3Kδ, 153 nM at PI3Kγ and 8 nM on PI3Kα.

As for `CC(=O)NC[C@@H]1CCN(C(=O)Nc2nc3c(s2)-c2nc(C(C)(C)C)ncc2CC3)[C@@H]1C(N)=O` [Example 36, (2S,3S)-3-(Acetylamino-methyl)-pyrrolidine-1,2-dicarboxylic acid 2-amide 1-[(8-tert-butyl-4,5-dihydro-thiazolo[4,5-h]quinazolin-2-yl)-amide]], the results for the IC50 against PI3Kβ, on PI3Kδ and against PI3Kα were 510 nM, 40 nM and 12 nM, respectively.

As for `CC(C)(C)c1ncc2c(n1)-c1sc(NC(=O)N3CC[C@@H](CN4CCOCC4)[C@H]3C(N)=O)nc1CC2` [Example 37, (2S,3S)-3-Morpholin-4-ylmethyl-pyrrolidine-1,2-dicarboxylic acid 2-amide 1-[(8-tert-butyl-4,5-dihydro-thiazolo[4,5-h]quinazolin-2-yl)-amide]], the IC50 on PI3Kβ was 182 nM; against PI3Kδ it was 19 nM; on PI3Kα, 4 nM.

In the case of `CC(C)(C)c1ncc2c(n1)-c1sc(NC(=O)N3CC[C@@H](O)[C@H]3C(N)=O)nc1CC2` [Example 38, (2S,3R)-3-Hydroxy-pyrrolidine-1,2-dicarboxylic acid 2-amide 1-[(8-tert-butyl-4,5-dihydro-thiazolo[4,5-h]quinazolin-2-yl)-amide]], the IC50 was 866 nM on PI3Kβ, 44 nM at PI3Kδ and 9 nM against PI3Kα.

Regarding `CC(C)(C)c1nc2c(s1)CCc1nc(NC(=O)N3CC[C@@H](CN4CCOCC4)[C@H]3C(N)=O)sc1-2` [Example 41, (2S,3S)-3-Morpholin-4-ylmethyl-pyrrolidine-1,2-dicarboxylic acid 2-amide 1-[(7-tert-butyl-4,5-dihydro-benzo[1,2-d;3,4-d′]bisthiazol-2-yl)-amide]], the IC50 was 3050 nM on PI3Kβ, 496 nM on PI3Kδ and 24 nM on PI3Kα.

Take `COC[C@@H]1CCN(C(=O)Nc2nc3c(s2)-c2nc(C(C)(C)C)ncc2CC3)[C@@H]1C(N)=O` [Example 42, (2S,3R)-3-Methoxymethyl-pyrrolidine-1,2-dicarboxylic acid 2-amide 1-[(8-tert-butyl-4,5-dihydro-thiazolo[4,5-h]quinazolin-2-yl)-amide]]: the IC50 against PI3Kβ was 409 nM; at PI3Kδ, 32 nM; against PI3Kα it was 8 nM.

For the compound `COC[C@@H]1CCN(C(=O)Nc2nc3c(s2)-c2nc(C(C)(C)C(F)(F)F)ncc2CC3)[C@@H]1C(N)=O` [Example 45, (2S,3R)-3-Methoxymethyl-pyrrolidine-1,2-dicarboxylic acid 2-amide 1-{[8-(2,2,2-trifluoro-1,1-dimethyl-ethyl)-4,5-dihydro-thiazolo[4,5-h]quinazolin-2-yl]-amide}], the IC50 came to 61 nM against PI3Kβ, 24 nM against PI3Kδ and 6.5 nM against PI3Kα.

Turning to `C[C@@H]1CCN(C(=O)Nc2nc3c(s2)-c2cc(C(C)(C)C)ncc2OC3)[C@@H]1C(N)=O` [Example 46, (2S,3R)-3-Methyl-pyrrolidine-1,2-dicarboxylic acid 2-amide 1-[(8-tert-butyl-4H-5-oxa-1-thia-3,7-diaza-cyclopenta[a]naphthalen-2-yl)-amide]], the IC50 against PI3Kβ was 1150 nM; at PI3Kδ, 157 nM; at PI3Kα, 5.5 nM.

Turning to `CN(C)C[C@@H]1CCN(C(=O)Nc2nc3c(s2)-c2cc(C(C)(C)C)ncc2OC3)[C@@H]1C(N)=O` [Example 47, (2S,3S)-3-Dimethylaminomethyl-pyrrolidine-1,2-dicarboxylic acid 2-amide 1-[(8-tert-butyl-4H-5-oxa-1-thia-3,7-diaza-cyclopenta[a]naphthalen-2-yl)-amide]], the IC50 on PI3Kβ amounted to 6170 nM; against PI3Kδ it was 1620 nM; on PI3Kα, 3 nM.

As to `C[C@@H]1CCN(C(=O)Nc2nc3c(s2)-c2cc(C(C)(C)C(F)(F)F)ncc2OC3)[C@@H]1C(N)=O` [Example 48, (2S,3R)-3-Methyl-pyrrolidine-1,2-dicarboxylic acid 2-amide 1-{[8-(2,2,2-trifluoro-1,1-dimethyl-ethyl)-4H-5-oxa-1-thia-3,7-diaza-cyclopenta[a]naphthalen-2-yl]-amide}], the IC50 against PI3Kβ stood at 920 nM; against PI3Kδ, 19 nM; on PI3Kα, 6 nM.

`COC[C@@H]1CCN(C(=O)Nc2nc3c(s2)-c2nc(C(C)(C)C(F)(F)F)sc2CC3)[C@@H]1C(N)=O` [Example 50, (2S,3R)-3-Methoxymethyl-pyrrolidine-1,2-dicarboxylic acid 2-amide 1-{[7-(2,2,2-trifluoro-1,1-dimethyl-ethyl)-4,5-dihydro-benzo[1,2-d;3,4-d′]bisthiazol-2-yl]-amide}]: the IC50 at PI3Kβ came out at 555 nM; against PI3Kδ it was 113 nM; on PI3Kα, 9 nM.
